Measurements reported in PubChem BioAssay AID190 (DTP/NCI, 2004).
Inconclusive results and toxic doses are left out.

Test system: AKR/Lw mice, AKR lymphoma ip, median survival T/C
Assay: NCI In Vivo Anticancer Drug Screen. Data for tumor model Lymphoma AKR (Transplanted) (intraperitoneal) in AKR/Lw mice
Conditions: endpoint: median survival time, higher = longer survival
Experimental: The antitumor activity of compounds was measured in mice bearing transplantable tumors. Survival or tumor size were measured and the results are expressed as the measurement made in the treated group (T) divided by the measurement made in the vehicle treated control group (C). The tumor model used in this assay is Lymphoma AKR (Transplanted) (intraperitoneal) in AKR/Lw mice

[1] = dose: 100.0 mg/kg/injection, schedule: Q01DX001 (ip), vehicle: Klucel (hydroxypropylcellulose) (HPC)
[2] = dose: 100.0 mg/kg/injection, schedule: Q04DX003 (ip), vehicle: Klucel (hydroxypropylcellulose) (HPC)
[3] = dose: 200.0 mg/kg/injection, schedule: Q01DX001 (ip), vehicle: Klucel (hydroxypropylcellulose) (HPC)
[4] = dose: 200.0 mg/kg/injection, schedule: Q04DX003 (ip), vehicle: Klucel (hydroxypropylcellulose) (HPC)
[5] = dose: 400.0 mg/kg/injection, schedule: Q01DX001 (ip), vehicle: Klucel (hydroxypropylcellulose) (HPC)
[6] = dose: 100.0 mg/kg/injection, schedule: Q01DX001 (ip), vehicle: saline
[7] = dose: 200.0 mg/kg/injection, schedule: Q01DX001 (ip), vehicle: saline
[8] = dose: 400.0 mg/kg/injection, schedule: Q01DX001 (ip), vehicle: saline
[9] = dose: 5.0 mg/kg/injection, schedule: Q04DX004 (ip), vehicle: Klucel (hydroxypropylcellulose) (HPC)
[10] = dose: 20.0 mg/kg/injection, schedule: Q04DX004 (ip), vehicle: Klucel (hydroxypropylcellulose) (HPC)
[11] = dose: 50.0 mg/kg/injection, schedule: Q04DX003 (ip), vehicle: Klucel (hydroxypropylcellulose) (HPC)
[12] = dose: 25.0 mg/kg/injection, schedule: Q01DX001 (ip), vehicle: saline

Q: `CCN(CC)C(N)=S` was tested. Which T/C [1] did it give?
A: Its T/C is 105 % of control.

Q: And the T/C [2]?
A: Its T/C is 100 % of control.

Q: What about the T/C [3] of the same compound?
A: The T/C was 105 % of control.

Q: And the T/C [4]?
A: Its T/C is 103 % of control.

Q: And the T/C [5]?
A: Its T/C is 110 % of control.

Q: And the T/C (dose: 400.0 mg/kg/injection, schedule: Q04DX003 (ip), vehicle: Klucel (hydroxypropylcellulose) (HPC))?
A: The T/C was 107 % of control.

Q: For `NC(=O)C(Br)CBr` (stereo not drawn), which T/C (dose: 25.0 mg/kg/injection, schedule: Q04DX003 (ip), vehicle: saline) is on record?
A: Its T/C is 100 % of control.

Q: What about the T/C (dose: 50.0 mg/kg/injection, schedule: Q04DX003 (ip), vehicle: saline) of the same compound?
A: Its T/C is 122 % of control.

Q: What about the T/C [6] of the same compound?
A: Its T/C is 108 % of control.

Q: And the T/C (dose: 100.0 mg/kg/injection, schedule: Q04DX003 (ip), vehicle: saline)?
A: The T/C was 89 % of control.

Q: And the T/C [7]?
A: The T/C was 101 % of control.

Q: Which T/C [6] does the source give for `OCC1(O)CC(O)C(O)(CO)CC1O` (stereo not drawn) here?
A: The T/C was 97 % of control.

Q: And the T/C [7]?
A: Its T/C is 116 % of control.

Q: And the T/C [8]?
A: The T/C was 104 % of control.

Q: Which T/C [9] does the source give for `O=NN(CCCl)C(=O)N[C@H]1CCCC[C@@H]1Cl` here?
A: The T/C was 123 % of control.

Q: What about the T/C (dose: 5.0 mg/kg/injection, schedule: Q04DX004 (ip), vehicle: saline) of the same compound?
A: Its T/C is 117 % of control.

Q: What about the T/C [10] of the same compound?
A: Its T/C is 97 % of control.

Q: How did the T/C [6] turn out when `COc1cccc2c1CCC1=C2CC2C(=O)C1CCC2(C)O` (stereo not drawn) was run?
A: Its T/C is 88 % of control.

Q: What about the T/C [7] of the same compound?
A: The T/C was 97 % of control.

Q: What about the T/C [8] of the same compound?
A: The T/C was 100 % of control.

Q: For `CCOC(=O)C1OC12CCCCC2` (stereo not drawn), which T/C [1] is on record?
A: Its T/C is 96 % of control.

Q: And the T/C [3]?
A: The T/C was 92 % of control.

Q: And the T/C [5]?
A: The T/C was 100 % of control.

Q: How did the T/C (dose: 25.0 mg/kg/injection, schedule: Q04DX003 (ip), vehicle: Klucel (hydroxypropylcellulose) (HPC)) turn out when `COc1ccc(CCNC(=S)NCCc2ccc(OC)c(OC)c2)cc1OC` was run?
A: The T/C was 94 % of control.

Q: And the T/C [11]?
A: The T/C was 105 % of control.

Q: And the T/C [1]?
A: Its T/C is 88 % of control.

Q: And the T/C [2]?
A: Its T/C is 100 % of control.

Q: And the T/C [5]?
A: Its T/C is 86 % of control.

Q: Which T/C [12] does the source give for `C[N+](C)(C)Cc1ccccc1` here?
A: Its T/C is 91 % of control.

Q: What does the source list for `COC(=O)c1ccc(NCC(C)(C)N)cc1`?
A: T/C (dose: 12.5 mg/kg/injection, schedule: Q01DX001 (ip), vehicle: saline): 100 % of control; T/C [12]: 94 % of control; T/C (dose: 50.0 mg/kg/injection, schedule: Q01DX001 (ip), vehicle: saline): 88 % of control

Q: What does the source list for `Nc1ccc(OCc2ccc(S(=O)(=O)F)c(Cl)c2)c(Cl)c1`?
A: T/C [11]: 88 % of control; T/C [1]: 87 % of control; T/C [2]: 86 % of control; T/C (dose: 150.0 mg/kg/injection, schedule: Q01DX009 (ip), vehicle: Klucel (hydroxypropylcellulose) (HPC)): 112 % of control; T/C [3]: 90 % of control; T/C [4]: 111 % of control

Q: `O=NN(CCCl)C(=O)NC1CC2CCC1C2` (stereo not drawn) was tested. Which T/C (dose: 0.31 mg/kg/injection, schedule: Q04DX004 (ip), vehicle: Klucel (hydroxypropylcellulose) (HPC)) did it give?
A: Its T/C is 115 % of control.

Q: What about the T/C (dose: 0.62 mg/kg/injection, schedule: Q04DX004 (ip), vehicle: Klucel (hydroxypropylcellulose) (HPC)) of the same compound?
A: Its T/C is 93 % of control.

Q: And the T/C (dose: 0.75 mg/kg/injection, schedule: Q04DX008 (ip), vehicle: Klucel (hydroxypropylcellulose) (HPC))?
A: The T/C was 102 % of control.

Q: And the T/C (dose: 1.25 mg/kg/injection, schedule: Q04DX004 (ip), vehicle: Klucel (hydroxypropylcellulose) (HPC))?
A: The T/C was 112 % of control.

Q: And the T/C (dose: 1.5 mg/kg/injection, schedule: Q04DX008 (ip), vehicle: Klucel (hydroxypropylcellulose) (HPC))?
A: Its T/C is 108 % of control.

Q: What about the T/C (dose: 2.5 mg/kg/injection, schedule: Q04DX004 (ip), vehicle: Klucel (hydroxypropylcellulose) (HPC)) of the same compound?
A: The T/C was 112 % of control.

Q: And the T/C [9]?
A: Its T/C is 120 % of control.

Q: What about the T/C (dose: 5.0 mg/kg/injection, schedule: Q04DX008 (ip), vehicle: Klucel (hydroxypropylcellulose) (HPC)) of the same compound?
A: Its T/C is 150 % of control.

Q: What about the T/C (dose: 10.0 mg/kg/injection, schedule: Q04DX004 (ip), vehicle: Klucel (hydroxypropylcellulose) (HPC)) of the same compound?
A: The T/C was 114 % of control.

Q: What about the T/C [10] of the same compound?
A: Its T/C is 114 % of control.
